# Experimental data reported in paper PMC11984691, “Identifying ENO1 as a protein target of chlorogenic acid to inhibit cellular senescence and prevent skin photoaging in mice” (Aging Cell, 2024).
# What was measured:
# [1] = molecular target: T1, Enolase 1 (ENO1) (Homo sapiens, UniProt P06733); assay: MicroScale Thermophoresis with purified ENO1; also LC-MS/MS site mapping, CETSA, pull-down competition and enzyme activity inhibition; type: binding
# T1 construct: recombinant wild-type human ENO1 (NP_001419.1), pET28a, His-tag
# T1 sequence (P06733 2-434): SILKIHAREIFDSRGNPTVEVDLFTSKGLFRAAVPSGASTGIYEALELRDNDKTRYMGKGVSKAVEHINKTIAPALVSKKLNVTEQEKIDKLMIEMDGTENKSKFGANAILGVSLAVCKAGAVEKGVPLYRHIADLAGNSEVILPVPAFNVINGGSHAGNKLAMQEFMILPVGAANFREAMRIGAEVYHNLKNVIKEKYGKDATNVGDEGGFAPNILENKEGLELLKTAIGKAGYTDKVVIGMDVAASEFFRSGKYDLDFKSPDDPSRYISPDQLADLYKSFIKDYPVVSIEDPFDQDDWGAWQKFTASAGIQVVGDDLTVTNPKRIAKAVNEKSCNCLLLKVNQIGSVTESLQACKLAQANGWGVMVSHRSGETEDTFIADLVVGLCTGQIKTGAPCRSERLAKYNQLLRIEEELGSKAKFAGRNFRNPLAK
# [2] = molecular target: T2, Enolase 1 (ENO1) C399A (Homo sapiens, UniProt P06733, C399A); assay: MicroScale Thermophoresis with purified mutant ENO1; type: binding
# T2 construct: recombinant human ENO1-C399A, pET28a, His-tag
# T2 sequence (P06733 2-434 C399A): as the sequence (P06733 2-434) above, with C398A counted along it
smiles,measurement,setting,value
"O=C(/C=C/c1ccc(O)c(O)c1)O[C@@H]1C[C@](O)(C(=O)O)C[C@@H](O)[C@H]1O [CGA, Chlorogenic acid]",Kd,[1],20 µM
same,Kd,[2],130 µM
